The text below walks through data of PubChem BioAssay (NCI).

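These data come from cells grown in 96-well plates and exposed to compound for 48 hours at five concentrations. Definition used: TGI = concentration required for complete inhibition of growth.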

For orientation: TGI means the concentration giving total growth inhibition.

Holding throughout (assay): DTP human tumour cell line panel, 48 h
Assay [1] deals with CCRF-CEM leukemia.
For assay [2], the system named is EKVX NSCLC.
For assay [3], the system named is HCT-116 colon.
Assay [4] concerns HCT-15 colon.
Assay [5] has as its system MDA-MB-231 breast.
Assay [6] has as its system MDA-N.
Assay [7] concerns NCI-H226 lung.
Assay [8] relates to NCI/ADR-RES ovarian.
Assay [9] relates to RPMI-8226 leukemia.
Assay [10] concerns SK-MEL-2 melanoma.
Assay [11] has as its system SK-MEL-28 melanoma.
Assay [12] relates to SNB-75 CNS.
For assay [13], the system named is SR leukemia.
The subject of assay [14] is T-47D breast.
For assay [15], the system named is U251 CNS.
Assay [16] deals with UO-31 renal.
Assay [17] has as its system MOLT-4 leukemia.
Assay [18] relates to SF-539 CNS.

Regarding `N=CN=CC(=S)O[C@@H]1C(=O)N2CCC[C@@]23CCCC[C@@H]13`, the TGI in [1], in assay [2], in [3], in [4], in assay [5] and in [6] was over 12.5 µM each time. The TGI in assay [7], in [8], in assay [9], in assay [10], in [11] and in [12] was over 12.5 µM throughout. Moreover, the total growth inhibition concentration (TGI) in assay [13], in assay [14], in assay [15] and in assay [16] was over 12.5 µM each time.

`COc1cc2c(cc1OC)C(=O)C1(C2)[C@H](c2ccccc2)C2C(=O)c3cc(OC)c(OC)cc3C2[C@H]1c1ccccc1` (stereo not given in full): the TGI in assay [1], in assay [2], in [3], in assay [4], in assay [5] and in assay [6] was over 100 µM each time. For the same compound, the TGI in assay [17], in assay [7], in assay [8], in assay [9], in [18] and in assay [11] was over 100 µM each time. Besides, the TGI in assay [12], in assay [13], in assay [14], in assay [15] and in assay [16] was over 100 µM in each case.

Regarding `COC(=O)C(COC(=O)/C=C/c1ccc(OC(C)=O)c(OC(C)=O)c1)NC(=O)/C=C/c1ccc(OC(C)=O)c(OC(C)=O)c1` (stereo not given), the TGI was over 100 µM in assay [1]; over 100 µM in [2]; 42.6 µM in assay [3]; over 100 µM in assay [4]; 40.1 µM in assay [5]; 71.7 µM in assay [6]. The TGI in assay [17] was over 100 µM; in assay [7] it was over 100 µM; in assay [8], over 100 µM; in assay [9] it was over 100 µM; in assay [18], over 100 µM; in assay [10] it was 36.3 µM. Also, the concentration for total growth inhibition (TGI) in [11] is 81.7 µM; in [12] it was over 100 µM; in assay [13], over 100 µM; in assay [14], 38.8 µM; in [15], over 100 µM.

Take `CCN(CCCl)c1cc(CN(C)C)cc(NC(=O)C23CCC(C(=O)Nc4cc(CN(C)C)cc(N(CC)CCCl)c4)(CC2)CC3)c1`: the TGI in [1] was 1.17 µM; in assay [3] it was 5.33 µM; in assay [4], 26.4 µM; in assay [5], 26.6 µM; in assay [6], 2.38 µM; in assay [17] it was 0.503 µM. Besides, the concentration for total growth inhibition (TGI) was 4 µM in assay [7]; over 100 µM in assay [8]; over 100 µM in assay [9]; 2.15 µM in assay [18]; 4.35 µM in assay [10]; 3.55 µM in [11]. The TGI stood at 8.33 µM in assay [12]; 24.2 µM in [13]; 19.2 µM in assay [14]; 11 µM in assay [15]; 30.9 µM in assay [16].

For `CC1CN(c2cc3c(cc2F)c(=O)c(C(=O)O)cn3-c2ccc(F)cn2)CC(C)N1` (stereo not given), the TGI in [1], in assay [2], in [3], in [4], in assay [5] and in [6] was over 100 µM in each case. The TGI in [17], in assay [7], in assay [8], in assay [9], in [18] and in assay [11] was over 100 µM in each case. The concentration for total growth inhibition (TGI) in [12], in assay [13], in assay [14], in assay [15] and in [16] was over 100 µM in each case.

Take `O/N=C1/CC2(N3CCOCC3)C3CC/C(=N\O)C2CC1(Cc1ccccc1)C3` (stereo not given): the TGI in assay [1], in assay [2], in [3], in assay [4], in assay [5] and in [6] was over 100 µM each time. Also, the total growth inhibition concentration (TGI) in assay [17], in assay [7], in assay [8], in [18], in assay [10] and in [11] was over 100 µM each time. Moreover, the TGI was 96 µM in assay [12]; over 100 µM in assay [13]; over 100 µM in [14]; over 100 µM in assay [15]; over 100 µM in [16].

For the compound `CCN(CC)C1C(=O)NC1C#Cc1ccccc1` (stereo not given), the total growth inhibition concentration (TGI) in assay [1], in [2], in assay [3], in assay [4], in assay [5] and in [6] was over 100 µM throughout. In addition, the TGI in [7], in assay [8], in [9], in assay [18], in assay [10] and in assay [11] was over 100 µM in each case. Further, the concentration for total growth inhibition (TGI) in assay [12], in [13], in assay [14], in assay [15] and in assay [16] was over 100 µM each time.

`O=C1NC(N2CCCCC2)=N/C1=C\c1ccc(Cl)cc1`: the total growth inhibition concentration (TGI) was over 100 µM in [1]; over 100 µM in assay [2]; 92.7 µM in assay [3]; over 100 µM in assay [4]; over 100 µM in [5]; over 100 µM in [6]. In addition, the TGI is over 100 µM in [17]; 96.1 µM in assay [7]; over 100 µM in assay [8]; over 100 µM in assay [9]; over 100 µM in assay [18]; over 100 µM in assay [10]. Besides, the total growth inhibition concentration (TGI) in assay [11], in assay [13], in assay [14], in assay [15] and in assay [16] was over 100 µM each time.
